Earlier results in US20030064123A1, “DHEA supplement for increasing women's libido” (priority 2001, published 2003).

What was measured:
[1] = post-menopausal women, oral DHEA 25 mg/day, after six months
[2] = test system: ventrobasal complex of the thalamus; conditions: rat
[3] = test system: androgen-deficient female patients; conditions: testosterone injections

Compound: C[C@]12CC[C@H](O)CC1=CC[C@@H]1[C@@H]2CC[C@]2(C)C(=O)CC[C@@H]12 [DHEA, Dihydroepiandosterone]
- estrogen levels [1]: returned to premenopausal levels
- testosterone levels [1]: returned to premenopausal levels

Compound: N=C(N)NCCC[C@H](N)C(=O)O [L-arginine]
- excitatory amino acid responses and sonato sensory transmission [2]: enhancement

Compound: C[C@]12CC[C@H]3[C@@H](CCC4=CC(=O)CC[C@@]43C)[C@@H]1CC[C@@H]2O [testosterone]
- libido and ability to become aroused and achieve a satisfactory orgasm [3]: resolved
